Laboratory results taken from patent US4870183A, “Novel amino acid derivatives” (priority 1986, dated 1989).

Key:
[1] = molecular target: T1, human renin (Homo sapiens, UniProt P00797); experiment: Inhibitory effect on human renin-sheep renin substrate reaction system in vitro; format: biochemical
T1 sequence (P00797 67-406): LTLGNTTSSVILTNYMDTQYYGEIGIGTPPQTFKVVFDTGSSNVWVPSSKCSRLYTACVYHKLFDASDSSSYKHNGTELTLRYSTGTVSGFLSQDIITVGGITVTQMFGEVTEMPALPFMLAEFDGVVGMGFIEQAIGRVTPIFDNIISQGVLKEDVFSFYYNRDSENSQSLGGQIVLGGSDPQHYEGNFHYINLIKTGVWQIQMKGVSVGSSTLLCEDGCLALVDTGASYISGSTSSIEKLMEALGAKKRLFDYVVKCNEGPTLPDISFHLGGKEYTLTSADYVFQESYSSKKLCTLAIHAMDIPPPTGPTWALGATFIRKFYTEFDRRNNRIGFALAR
Procedure: Inhibitory effect on human renin-sheep renin substrate reaction system in vitro
The mixture was incubated for 15 minutes on a water bath at 37° C., and the reaction mixture was allowed to stand for 5 minutes on a water bath at 100° C. to stop the reaction. After cooling, 200 μl of the solution was taken up and the amount of angiotensin I produced by the addition of renin was determined by radioimmunoassay using renin riabead kit (DAINABOT).
The inhibitory effect was calculated by the following equation.
As a control, the same procedure as above was carried out by using 50 μl of dimethyl sulfoxide alone in place of the 50 μl of dimethyl sulfoxide solution containing an amino acid compound of the present invention. [formula]

[2] = molecular target: T2, renin in human high renin plasma (Homo sapiens, UniProt P00797); experiment: Renin inhibitory effect in a human high renin plasma; format: biochemical
T2 construct: from tissue; host or cells: human high renin plasma
T2 sequence (P00797 67-406): T1 sequence (P00797 67-406)
Procedure: Renin Inhibitory Effect in a Human High Renin Plasma
Two hundred μl of the mixture was placed on an ice bath, at 4° C., and remaining mixture (800 μl) was incubated for 60 minutes at 37° C. on a water bath. Two hundred μl of the incubated remaining mixture was chilled immediately on an ice bath, and the amount (A) of angiotensin I produced was determined by radioimmunoassay using renin riabead kit (DAINABOT).
The amount (B) of angiotensin I in the mixture placed on an ice bath at 4° C. was also determined by radioimmunoassay.
As a control, the same procedure as above was carried out by using 100 μl of dimethyl sulfoxide alone in place of 100 μl of dimethyl sulfoxide solution containing an amino acid compound of the present invention.
The net amount was estimated as the difference between A and B.
The inhibitory effect was calculated by the following equation. [formula]

[3] = molecular target: T3, plasma renin activity (Callithrix jacchus, UniProt Q9TSZ1); experiment: Renin inhibitory effect in plasma on common marmoset (plasma renin activity after oral dosing); format: in vivo; settings: 30 mg/kg oral single dose, furosemide-treated conscious marmosets, control 43.16
T3 construct: from tissue; host or cells: plasma of furosemide-treated conscious male common marmosets
T3 sequence (Q9TSZ1 61-400): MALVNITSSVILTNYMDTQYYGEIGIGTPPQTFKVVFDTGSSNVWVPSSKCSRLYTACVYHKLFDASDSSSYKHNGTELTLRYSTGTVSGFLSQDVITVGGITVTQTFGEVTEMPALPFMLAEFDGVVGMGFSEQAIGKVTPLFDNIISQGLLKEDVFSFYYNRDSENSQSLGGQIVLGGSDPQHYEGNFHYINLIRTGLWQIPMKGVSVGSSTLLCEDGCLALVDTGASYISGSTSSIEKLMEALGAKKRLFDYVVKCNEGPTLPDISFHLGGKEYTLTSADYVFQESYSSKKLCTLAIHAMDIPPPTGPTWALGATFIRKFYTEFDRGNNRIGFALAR
Procedure: Renin Inhibitory Effect in Plasma on Common Marmoset
The experiment was carried out by using common marmoset as described in K. G. Hofbauer et al., CLINICAL AND EXPERIMENTAL HYPERTENSION, Vol. A5, Nos. 7 & 8 (1983), pages 1237-1247.
Furosemide was administered orally three times to common marmoset having a lower salt diet at 15 mg per kilogram per day every other day to create a high renin state. The experiment was carried out on the third day after the last furosemide dose.
Three conscious male marmosets weighing 310-460 g were placed into small restraining chair, and by using a catheter into the femoral artery, blood collecting was carried out at intervals of 60, 180 and 300 minutes.
Collected blood samples were centrifuged at 1200×g for 15 minutes at 4° C. Two hundred μl of the plasma was taken up and incubated for 60 minutes at 37° C., and the plasma renin activity was measured by radioimmunoassay using renin riabead kit (DAINABOT).
Compound A of this invention was dissolved in dilute hydrochloric acid, and administered orally at single dose of 30 mg/kg using catheter.

[4] = Hypotensive effect in marmoset (tail cuff blood pressure, high renin state); format: in vivo, common marmoset; settings: 30 mg/kg oral, conscious high renin marmoset, control 99.7
Procedure: Hypotensive Effect in Marmoset
The experiment was carried out by using common marmoset as described in K. G. Hofbauer et al., Clinical and Experimental Hypertension, Vol. A5, Nos. 7 & 8 pages 1237-1247.
Furosemide was administered orally three times to common marmoset at 15 mg per kilogram per day every other day to create a high renin state. Blood pressure of conscious marmoset was measured on the third day after the last furosemide dose.
A conscious male marmoset weighing 340 g was placed into small restraining chair. Blood pressure was measured on the tail cuff method using pretismograph. Compound A of this invention was dissolved in dilute hydrochloric acid, and administered orally at 30 mg/kg by using a catheter.

Row | IC50 [1] [nM] | IC50 [2] [nM] | PRA ([3]; 60 minutes after administration) [ng angiotensin I/ml/hr] | PRA ([3]; 180 minutes after administration) [ng angiotensin I/ml/hr] | PRA ([3]; 300 minutes after administration) [ng angiotensin I/ml/hr] | Compound | Blood pressure ([4]; 0.5 hours after administration) [mmHg] | Blood pressure ([4]; 1 hour after administration) [mmHg] | Blood pressure ([4]; 2 hours after administration) [mmHg] | Blood pressure ([4]; 3 hours after administration) [mmHg] | Blood pressure ([4]; 5 hours after administration) [mmHg]
1 | 58 | 280 |  |  |  | Cc1ccccc1CC(Cc1ccccc1C)C(=O)N[C@@H](Cc1c[nH]cn1)C(=O)N[C@@H](CC1CCCCC1)C(O)C(=O)OC(C)C (mixture of isomers) [Compound W, (2RS, 3S)-3-{N-[Bis(2-methylbenzyl)-acetyl]-L-histidyl}amino-4-cyclohexyl-2-hydroxybutyric acid isopropyl ester] |  |  |  |  | 
2 | 900 | 3300 |  |  |  | Cc1cccc(C)c1CC(Cc1c(C)cccc1C)C(=O)N[C@@H](Cc1c[nH]cn1)C(=O)N[C@@H](CC1CCCCC1)C(O)C(=O)OC(C)C (mixture of isomers) [Compound G, (2RS, 3S)-3-{N-[Bis(2,6-dimethylbenzyl)acetyl]-L-histidyl}amino-4-cyclohexyl-2-hydroxybutyric acid isopropyl ester] |  |  |  |  | 
3 | 9.4 | 130 | 30.35 | 18.89 | 22.93 | CC(C)OC(=O)C(O)[C@H](CC1CCCCC1)NC(=O)[C@H](Cc1c[nH]cn1)NC(=O)C(Cc1ccccc1F)Cc1ccccc1F (mixture of isomers) [Compound A, (2RS, 3S)-3-{N-[Bis(2-fluorobenzyl)acetyl]-L-histidyl}amino-4-cyclohexyl-2-hydroxybutyric acid isopropyl ester] | 94.7 | 86.2 | 89.7 | 86.2 | 85.7
